Measurements: US12472193B2, “Methods and compositions for treating and preventing respiratory related diseases and conditions with xylitol-headgroup lipid analogs” (National Jewish Health, priority 2017, dated 2025)

Columns and labels:
TLR 3 ectodomain = biological target: T1, TLR 3 ectodomain (Homo sapiens, UniProt O15455); assay: Binding of TLR 3 ectodomain to solid phase phospholipid; details: for binding to TLR 3 ectodomain: 0.625 nmol lipid per well, 6 μg/mL TLR 3 protein; for concentration-dependent binding of TLR 3: binding curves
T1 construct: purchased R&D system
T1 sequence (O15455 24-704 limits assumed): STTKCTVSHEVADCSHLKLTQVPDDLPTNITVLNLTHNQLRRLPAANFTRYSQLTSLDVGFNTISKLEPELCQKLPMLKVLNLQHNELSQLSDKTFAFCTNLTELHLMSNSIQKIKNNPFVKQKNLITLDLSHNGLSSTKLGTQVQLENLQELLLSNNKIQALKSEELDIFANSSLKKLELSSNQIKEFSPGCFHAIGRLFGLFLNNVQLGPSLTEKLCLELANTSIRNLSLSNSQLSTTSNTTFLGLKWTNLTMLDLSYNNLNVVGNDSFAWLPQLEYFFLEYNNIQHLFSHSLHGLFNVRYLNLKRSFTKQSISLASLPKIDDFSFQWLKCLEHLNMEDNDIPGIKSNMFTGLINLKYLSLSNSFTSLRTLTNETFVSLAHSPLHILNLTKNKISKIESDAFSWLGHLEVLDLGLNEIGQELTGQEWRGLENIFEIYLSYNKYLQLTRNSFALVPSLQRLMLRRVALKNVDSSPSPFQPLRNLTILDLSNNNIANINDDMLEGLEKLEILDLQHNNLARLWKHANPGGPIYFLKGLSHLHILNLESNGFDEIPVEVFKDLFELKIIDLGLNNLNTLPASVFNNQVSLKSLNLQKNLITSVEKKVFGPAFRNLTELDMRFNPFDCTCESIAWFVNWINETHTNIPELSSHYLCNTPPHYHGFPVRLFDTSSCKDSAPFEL
Procedure: Lipids were dried under a stream of nitrogen and resuspended i 100% ethanol, and 0.625 nmol was added in a 40 μL volume to each well of a half-area, 96-well plate. The solvent was evaporated under warm air for 90 minutes. 120 μL of blocking solution (150 mM NaCl, 20 mM sodium acetate pH 5.5 containing 3% BSA w/v) was added to each well and incubated for 1 hour at room temperature. Wells were then washed with (150 mM NaCl, 20 mM sodium acetate pH 5.5) followed by the addition of 40 μL of 6 μg/mL TLR 3 ectodomain in blocking solution to each well and the plate was incubated at 37° C. for 1 hour. The wells were washed 3 times and 40 μL of human TLR 3 primary antibody, diluted 1:500, was added and incubated overnight at 4° C. After washing out the primary antibody with (150 mM NaCl, 20 mM Tris pH 7.4), a secondary (rabbit anti-goat) antibody conjugated to horseradish peroxidase (HRP), diluted 1:1000, was added in 40 μL aliquots to each well and incubated at 37° C. for 1 hour. After washing, the peroxidase activity was detected with the substrate o-phenylenediamine and the absorbance read at 490 nm to detect degree of binding.
Solid phase lipid binding to fluid phase TLR 3 ectodomain was examined as a potential explanation for the differences in activity. Lipids were dried under a stream of nitrogen and resuspended in 100% ethanol. 0.625 nmol of lipid was plated per well in a 96-well plate and dried for 90 minutes. BSA was used to block non-specific binding and then TLR 3 protein was added to each well at 6 μg/mL and incubated at 37° C. for one hour. After washing out unbound protein, primary antibody was added for detection of TLR 3 and incubated overnight at 4° C. The following day secondary antibody conjugated to HRP was added to the wells and the peroxidase reaction activated by o-phenylenediamine. The absorbance was read at 490 nm to detect binding.

TLR 4 = biological target: T2, TLR 4 (Mus musculus, UniProt Q9JHF9+Q9QUK6); assay: LPS-induced TNF-α secretion by RAW264.7 cells (TLR 4 antagonism); format: cell-based; details: reduction in cytokine secretion vs activating TLR ligand alone
T2 construct: LPS was added to RAW264.7 cells at 10 ng/mL in the absence or presence of 50 μg/mL of lipid; endogenous in cells; host or cells: RAW264.7 (ATCC)
T2 sequence (Q9QUK6 26-835): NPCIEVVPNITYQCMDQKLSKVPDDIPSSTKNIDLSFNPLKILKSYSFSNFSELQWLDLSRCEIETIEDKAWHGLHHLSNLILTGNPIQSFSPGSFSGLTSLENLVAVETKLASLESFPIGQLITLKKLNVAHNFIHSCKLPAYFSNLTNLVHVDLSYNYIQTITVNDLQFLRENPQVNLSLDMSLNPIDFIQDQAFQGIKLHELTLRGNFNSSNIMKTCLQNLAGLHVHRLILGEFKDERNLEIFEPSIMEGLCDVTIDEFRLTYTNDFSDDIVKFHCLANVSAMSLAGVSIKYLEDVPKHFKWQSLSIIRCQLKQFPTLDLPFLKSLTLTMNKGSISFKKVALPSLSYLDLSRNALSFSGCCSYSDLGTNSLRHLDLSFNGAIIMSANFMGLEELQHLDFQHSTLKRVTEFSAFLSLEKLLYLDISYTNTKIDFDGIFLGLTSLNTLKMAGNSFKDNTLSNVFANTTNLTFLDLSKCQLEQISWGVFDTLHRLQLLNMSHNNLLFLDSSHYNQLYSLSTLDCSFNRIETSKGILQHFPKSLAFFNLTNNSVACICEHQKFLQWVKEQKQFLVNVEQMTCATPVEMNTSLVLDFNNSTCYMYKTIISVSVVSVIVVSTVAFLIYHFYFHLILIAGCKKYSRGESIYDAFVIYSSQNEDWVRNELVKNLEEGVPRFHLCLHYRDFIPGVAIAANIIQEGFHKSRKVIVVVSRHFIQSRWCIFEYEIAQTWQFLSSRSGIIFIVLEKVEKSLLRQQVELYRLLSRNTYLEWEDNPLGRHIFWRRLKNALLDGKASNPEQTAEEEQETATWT
T2 sequence (Q9JHF9 19-160): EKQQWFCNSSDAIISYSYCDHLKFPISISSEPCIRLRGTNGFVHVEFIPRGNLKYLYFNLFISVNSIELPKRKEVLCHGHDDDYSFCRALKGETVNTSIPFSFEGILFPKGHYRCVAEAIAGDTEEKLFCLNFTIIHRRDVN

Structure (SMILES) | binding to TLR 3 ectodomain (TLR 3 ectodomain) | TLR2 antagonist activity (TLR 4) | concentration-dependent binding of TLR 3 (TLR 3 ectodomain)
CCCCCCCCCCCCCCOC[C@H](COP(=O)(O)OCC(O)C(O)C(O)CO)OCCCCCCCCCCCCCC (mixture of isomers) [14:0 DEPX, sn-1-O-myristyl, sn-2-O-myristyl sn-3 glycerol phosphoxylitol] | all xylitol analogs except 14:0 DEPX demonstrated specific binding | + (cutoff being greater than a 50% reduction in cytokine secretion compared to activating TLR ligand alone) | 
CCCCCCC=CCCCCCCCC(=O)OCC(COP(=O)(O)OCC(O)C(O)C(O)CO)OC(=O)CCCCCCCC=CCCCCCC (mixture of isomers) [16:1 DPPX, sn-1-palmitoleoyl, sn-2-palmitoleoyl sn-3 glycerol phosphoxylitol] |  | + (cutoff being greater than a 50% reduction in cytokine secretion compared to activating TLR ligand alone) | significantly different from POPC
CCCCCCCCC=CCCCCCCCCOCC(COP(=O)(O)OCC(O)C(O)C(O)CO)OCCCCCCCCC=CCCCCCCCC (mixture of isomers) [18:1 DEPX, sn-1-O-octadecenyl, sn-2-O-octadecenyl sn-3 glycerol phosphoxylitol] | not statistically different from POPG | + (cutoff being greater than a 50% reduction in cytokine secretion compared to activating TLR ligand alone) | significantly different from POPC
CCCCCC=CCC=CCCCCCCCC(=O)OCC(COP(=O)(O)OCC(O)C(O)C(O)CO)OC(=O)CCCCCCCC=CCC=CCCCCC (mixture of isomers) [18:2 DLPX, sn-1-linoleoyl, sn-2-linoleoyl sn-3 glycerol phosphoxylitol] | not statistically different from POPG | + (cutoff being greater than a 50% reduction in cytokine secretion compared to activating TLR ligand alone) | 
CCCCCCCCCCCCCC(=O)OC[C@H](COP(=O)(O)OCC(O)C(O)C(O)CO)OC(=O)CCCCCCCCCCCCC (mixture of isomers) [DMPX, sn-1-myristoyl, sn-2-myristoyl sn-3 glycerol phosphoxylitol] |  | + (cutoff being greater than a 50% reduction in cytokine secretion compared to activating TLR ligand alone) | 
CCCCCCCCC=CCCCCCCCC(=O)OCC(COP(=O)(O)OCC(O)C(O)C(O)CO)OC(=O)CCCCCCCC=CCCCCCCCC (mixture of isomers) [DOPX, sn-1-oleoyl, sn-2-oleoyl sn-3 glycerol phosphoxylitol] |  | + (cutoff being greater than a 50% reduction in cytokine secretion compared to activating TLR ligand alone) | 
CCCCCCCC/C=C\CCCCCCCC(=O)O[C@H](COC(=O)CCCCCCCCCCCCCCC)COP(=O)(O)OCC(O)CO (some centres unmarked) [POPG, palmitoyl-oleoyl-phosphatidylglycerol, reference compound] | specific binding to TLR 3 ectodomain |  | significantly different from POPC
CCCCCCCC/C=C\CCCCCCCC(=O)O[C@H](COC(=O)CCCCCCCCCCCCCCC)COP(=O)(O)OCC(O)C(O)C(O)CO (some centres unmarked) [POPX, sn-1-palmitoyl, sn-2-oleoyly sn-3 glycerol phosphoxylitol] |  | + (cutoff being greater than a 50% reduction in cytokine secretion compared to activating TLR ligand alone) | 
